Measured values as given in patent US9212151B2, “Heterocyclic compounds useful for kinase inhibition” (Amitech Therapeutic Solutions, Inc., priority 2010, dated 2015).

Experiment: MTT cell viability assay, compounds at 5, 1 and 0.2 μM, 48 hours
Type: cell-based
Settings: human, A549 tumor cells, 0.2 μM
Description: MTT assay is used to determine cell proliferation, percent of viable cells, and cytotoxicity. MTT (3-[4,5-dimethylthiazol-2-yl]2,5-diphenyltetrazolium bromide) is a yellow dye, which can be absorbed by the living cells and be reduced to purplish blue formazan crystals by succinate tetrazolium reductase in mitochondria. Formazan formation can therefore be used to assess and determine the survival rate of cells.
Tumor cells (A549) were plated at 2500 cells/well of a 96-well plate in complete growth medium (DMEM+10% FBS, antibiotic/antimycotic, fungizone, L-glutamine, sodium pyruvate, and non-essential amino acids). The cells were allowed to grow overnight. After cell proliferation, the cells were washed and re-suspended in fresh culture medium and placed in 96 well plates.
To each of the 96 well plates containing A549 and a control, 5, 1, and 0.2 μM of the exemplary compounds 1-200 were add. The 96 well plates were incubated for 48 hours. Cell viability was measured by adding MTT (Sigma) at 5 mg/ml for 4 h to the cells and then removing the medium and resuspending each well in 50 μl DMSO to solubilize the crystals. The 96-well plates were read on a plate-scanning spectrophotometer (BioTek) at an absorbance of […]. The survival rate of cells was calculated based on the measurement of absorption at the 570 nm wavelength by enzyme immunoassay analyzer.

| Compound | viability at 48 h, 0.2 µM |
| --- | --- |
| Nc1cc(Oc2ccc(-c3nnc(Nc4cccc(C(F)(F)F)c4)o3)cc2)nc(N)n1 [Compound 24] | > 70% |
| CSc1nc(N)cc(Oc2ccc(-c3nnc(Nc4cccc(C(F)(F)F)c4)o3)cc2)n1 [Compound 25] | < 50% |
| FC(F)(F)c1cccc(Nc2nnc(-c3ccc(Oc4nccc(Cl)n4)cc3)o2)c1 [Compound 26] | > 70% |
| Nc1nccc(Oc2ccc(-c3nnc(Nc4cccc(C(F)(F)F)c4)o3)cc2)n1 [Compound 27] | > 70% |
| Nc1cc(Oc2ccc(-c3nnc(Nc4cccc(C(F)(F)F)c4)o3)cc2)ncn1 [Compound 28] | > 70% |
| FC(F)(F)c1cccc(Nc2nnc(-c3ccc(Oc4ccncc4)cc3)o2)c1 [Compound 29] | > 70% |
| FC(F)(F)c1cccc(Nc2nnc(-c3ccc(Oc4ccnc(Cl)c4)cc3)o2)c1 [Compound 30] | > 70% |
| NS(=O)(=O)c1cnccc1Oc1ccc(-c2nnc(Nc3cccc(C(F)(F)F)c3)o2)cc1 [Compound 31] | > 70% |
| FC(F)(F)c1cccc(Nc2nnc(-c3ccc(Oc4ncnc5[nH]ccc45)cc3)o2)c1 [Compound 32] | > 70% |
| COc1ccc2c(Oc3ccc(-c4nnc(Nc5cccc(C(F)(F)F)c5)o4)cc3)ccnc2c1 [Compound 33] | > 70% |
| FC(F)(F)c1cccc(Nc2nnc(-c3ccc(Oc4ccnc5ccccc45)cc3)o2)c1 [Compound 34] | > 70% |
| Nc1cc(Oc2cccc(-c3nnc(Nc4cccc(C(F)(F)F)c4)o3)c2)nc(N)n1 [Compound 35] | > 70% |
| CSc1nc(N)cc(Oc2cccc(-c3nnc(Nc4cccc(C(F)(F)F)c4)o3)c2)n1 [Compound 36] | > 70% |
| FC(F)(F)c1cccc(Nc2nnc(-c3cccc(Oc4ccncc4)c3)o2)c1 [Compound 37] | > 70% |
| Nc1cc(Oc2cccc(-c3nnc(Nc4cccc(C(F)(F)F)c4)o3)c2)ccn1 [Compound 38] | > 70% |
| NS(=O)(=O)c1cnccc1Oc1cccc(-c2nnc(Nc3cccc(C(F)(F)F)c3)o2)c1 [Compound 39] | > 70% |
| FC(F)(F)c1cccc(Nc2nnc(-c3cccc(Oc4ccncc4C(F)(F)F)c3)o2)c1 [Compound 40] | > 70% |
| COc1ccc2c(Oc3cccc(-c4nnc(Nc5cccc(C(F)(F)F)c5)o4)c3)ccnc2c1 [Compound 41] | > 70% |
| FC(F)(F)c1cccc(Nc2nnc(-c3cccc(Oc4ccnc5ccccc45)c3)o2)c1 [Compound 42] | > 70% |
| Nc1cc(Oc2ccc(-c3nnc(Nc4cccc(C(F)(F)F)c4)s3)cc2)nc(N)n1 [Compound 43] | > 70% |
| CSc1nc(N)cc(Oc2ccc(-c3nnc(Nc4cccc(C(F)(F)F)c4)s3)cc2)n1 [Compound 44] | > 70% |
| FC(F)(F)c1cccc(Nc2nnc(-c3ccc(Oc4ncnc5[nH]ccc45)cc3)s2)c1 [Compound 45] | > 70% |
| COc1ccc2c(Oc3ccc(-c4nnc(Nc5cccc(C(F)(F)F)c5)s4)cc3)ccnc2c1 [Compound 46] | > 70% |

Same assay, conditions: human, A549 tumor cells, 1 μM

| Compound | viability at 48 h, 1 µM |
| --- | --- |
| Nc1cc(Oc2ccc(-c3nnc(Nc4cccc(C(F)(F)F)c4)o3)cc2)nc(N)n1 [Compound 24] | > 70% |
| CSc1nc(N)cc(Oc2ccc(-c3nnc(Nc4cccc(C(F)(F)F)c4)o3)cc2)n1 [Compound 25] | < 50% |
| FC(F)(F)c1cccc(Nc2nnc(-c3ccc(Oc4nccc(Cl)n4)cc3)o2)c1 [Compound 26] | > 70% |
| Nc1nccc(Oc2ccc(-c3nnc(Nc4cccc(C(F)(F)F)c4)o3)cc2)n1 [Compound 27] | > 70% |
| Nc1cc(Oc2ccc(-c3nnc(Nc4cccc(C(F)(F)F)c4)o3)cc2)ncn1 [Compound 28] | > 70% |
| FC(F)(F)c1cccc(Nc2nnc(-c3ccc(Oc4ccncc4)cc3)o2)c1 [Compound 29] | > 70% |
| FC(F)(F)c1cccc(Nc2nnc(-c3ccc(Oc4ccnc(Cl)c4)cc3)o2)c1 [Compound 30] | > 70% |
| NS(=O)(=O)c1cnccc1Oc1ccc(-c2nnc(Nc3cccc(C(F)(F)F)c3)o2)cc1 [Compound 31] | > 70% |
| FC(F)(F)c1cccc(Nc2nnc(-c3ccc(Oc4ncnc5[nH]ccc45)cc3)o2)c1 [Compound 32] | > 70% |
| COc1ccc2c(Oc3ccc(-c4nnc(Nc5cccc(C(F)(F)F)c5)o4)cc3)ccnc2c1 [Compound 33] | > 70% |
| FC(F)(F)c1cccc(Nc2nnc(-c3ccc(Oc4ccnc5ccccc45)cc3)o2)c1 [Compound 34] | > 70% |
| Nc1cc(Oc2cccc(-c3nnc(Nc4cccc(C(F)(F)F)c4)o3)c2)nc(N)n1 [Compound 35] | > 70% |
| CSc1nc(N)cc(Oc2cccc(-c3nnc(Nc4cccc(C(F)(F)F)c4)o3)c2)n1 [Compound 36] | > 70% |
| FC(F)(F)c1cccc(Nc2nnc(-c3cccc(Oc4ccncc4)c3)o2)c1 [Compound 37] | > 70% |
| Nc1cc(Oc2cccc(-c3nnc(Nc4cccc(C(F)(F)F)c4)o3)c2)ccn1 [Compound 38] | > 70% |
| NS(=O)(=O)c1cnccc1Oc1cccc(-c2nnc(Nc3cccc(C(F)(F)F)c3)o2)c1 [Compound 39] | > 70% |
| FC(F)(F)c1cccc(Nc2nnc(-c3cccc(Oc4ccncc4C(F)(F)F)c3)o2)c1 [Compound 40] | > 70% |
| COc1ccc2c(Oc3cccc(-c4nnc(Nc5cccc(C(F)(F)F)c5)o4)c3)ccnc2c1 [Compound 41] | > 70% |
| FC(F)(F)c1cccc(Nc2nnc(-c3cccc(Oc4ccnc5ccccc45)c3)o2)c1 [Compound 42] | > 70% |
| Nc1cc(Oc2ccc(-c3nnc(Nc4cccc(C(F)(F)F)c4)s3)cc2)nc(N)n1 [Compound 43] | > 70% |
| CSc1nc(N)cc(Oc2ccc(-c3nnc(Nc4cccc(C(F)(F)F)c4)s3)cc2)n1 [Compound 44] | > 70% |
| FC(F)(F)c1cccc(Nc2nnc(-c3ccc(Oc4ncnc5[nH]ccc45)cc3)s2)c1 [Compound 45] | 50 to 70% |
| COc1ccc2c(Oc3ccc(-c4nnc(Nc5cccc(C(F)(F)F)c5)s4)cc3)ccnc2c1 [Compound 46] | > 70% |

Same assay, conditions: human, A549 tumor cells, 5 μM

| Compound | viability at 48 h, 5 µM |
| --- | --- |
| Nc1cc(Oc2ccc(-c3nnc(Nc4cccc(C(F)(F)F)c4)o3)cc2)nc(N)n1 [Compound 24] | > 70% |
| CSc1nc(N)cc(Oc2ccc(-c3nnc(Nc4cccc(C(F)(F)F)c4)o3)cc2)n1 [Compound 25] | < 50% |
| FC(F)(F)c1cccc(Nc2nnc(-c3ccc(Oc4nccc(Cl)n4)cc3)o2)c1 [Compound 26] | > 70% |
| Nc1nccc(Oc2ccc(-c3nnc(Nc4cccc(C(F)(F)F)c4)o3)cc2)n1 [Compound 27] | 50 to 70% |
| Nc1cc(Oc2ccc(-c3nnc(Nc4cccc(C(F)(F)F)c4)o3)cc2)ncn1 [Compound 28] | > 70% |
| FC(F)(F)c1cccc(Nc2nnc(-c3ccc(Oc4ccncc4)cc3)o2)c1 [Compound 29] | 50 to 70% |
| FC(F)(F)c1cccc(Nc2nnc(-c3ccc(Oc4ccnc(Cl)c4)cc3)o2)c1 [Compound 30] | 50 to 70% |
| NS(=O)(=O)c1cnccc1Oc1ccc(-c2nnc(Nc3cccc(C(F)(F)F)c3)o2)cc1 [Compound 31] | > 70% |
| FC(F)(F)c1cccc(Nc2nnc(-c3ccc(Oc4ncnc5[nH]ccc45)cc3)o2)c1 [Compound 32] | > 70% |
| COc1ccc2c(Oc3ccc(-c4nnc(Nc5cccc(C(F)(F)F)c5)o4)cc3)ccnc2c1 [Compound 33] | > 70% |
| FC(F)(F)c1cccc(Nc2nnc(-c3ccc(Oc4ccnc5ccccc45)cc3)o2)c1 [Compound 34] | > 70% |
| Nc1cc(Oc2cccc(-c3nnc(Nc4cccc(C(F)(F)F)c4)o3)c2)nc(N)n1 [Compound 35] | > 70% |
| CSc1nc(N)cc(Oc2cccc(-c3nnc(Nc4cccc(C(F)(F)F)c4)o3)c2)n1 [Compound 36] | > 70% |
| FC(F)(F)c1cccc(Nc2nnc(-c3cccc(Oc4ccncc4)c3)o2)c1 [Compound 37] | > 70% |
| Nc1cc(Oc2cccc(-c3nnc(Nc4cccc(C(F)(F)F)c4)o3)c2)ccn1 [Compound 38] | > 70% |
| NS(=O)(=O)c1cnccc1Oc1cccc(-c2nnc(Nc3cccc(C(F)(F)F)c3)o2)c1 [Compound 39] | > 70% |
| FC(F)(F)c1cccc(Nc2nnc(-c3cccc(Oc4ccncc4C(F)(F)F)c3)o2)c1 [Compound 40] | > 70% |
| COc1ccc2c(Oc3cccc(-c4nnc(Nc5cccc(C(F)(F)F)c5)o4)c3)ccnc2c1 [Compound 41] | > 70% |
| FC(F)(F)c1cccc(Nc2nnc(-c3cccc(Oc4ccnc5ccccc45)c3)o2)c1 [Compound 42] | > 70% |
| Nc1cc(Oc2ccc(-c3nnc(Nc4cccc(C(F)(F)F)c4)s3)cc2)nc(N)n1 [Compound 43] | > 70% |
| CSc1nc(N)cc(Oc2ccc(-c3nnc(Nc4cccc(C(F)(F)F)c4)s3)cc2)n1 [Compound 44] | > 70% |
| FC(F)(F)c1cccc(Nc2nnc(-c3ccc(Oc4ncnc5[nH]ccc45)cc3)s2)c1 [Compound 45] | < 50% |
| COc1ccc2c(Oc3ccc(-c4nnc(Nc5cccc(C(F)(F)F)c5)s4)cc3)ccnc2c1 [Compound 46] | < 50% |
